The assay concerns the target T1, human Kv1.3 ion channel (Homo sapiens, UniProt P22001).
T1 construct: Human Jurkat cells (which endogenously express hKv1.3) were used in place of rat L929 cells; endogenous in cells; host or cells: Human Jurkat cells
The assay is described as follows: Inhibition of Kv1.3 currents, planar patch clamp in Jurkat cells. The format is cell-based. To be noted: Human Jurkat cells (endogenous hKv1.3), averaged dose response data from 3 or more cells. The protocol: Potency of compounds to inhibit the human Kv1.3 ion channel were determined as follows:
EC50 values for inhibition of Kv1.3 currents were determined by the method according to Schmitz et al (2005) Molecular Pharmacology 68, 1254-1270 with the following differences: • 1. Human Jurkat cells (which endogenously express hKv1.3) were used in place of rat L929 cells. • 2. All electrophysiology was performed using planar patch clamp (Port-A-Patch, Nanion Technologies Gmbh, Munich) in contrast to conventional patch clamp. • 3. EC50 values shown were determined from averaged dose response data obtained from 3 or more cells.
For orientation: The patch-clamp technique gives a direct electrical read-out from membranes.

T1 sequence (P22001 whole entry): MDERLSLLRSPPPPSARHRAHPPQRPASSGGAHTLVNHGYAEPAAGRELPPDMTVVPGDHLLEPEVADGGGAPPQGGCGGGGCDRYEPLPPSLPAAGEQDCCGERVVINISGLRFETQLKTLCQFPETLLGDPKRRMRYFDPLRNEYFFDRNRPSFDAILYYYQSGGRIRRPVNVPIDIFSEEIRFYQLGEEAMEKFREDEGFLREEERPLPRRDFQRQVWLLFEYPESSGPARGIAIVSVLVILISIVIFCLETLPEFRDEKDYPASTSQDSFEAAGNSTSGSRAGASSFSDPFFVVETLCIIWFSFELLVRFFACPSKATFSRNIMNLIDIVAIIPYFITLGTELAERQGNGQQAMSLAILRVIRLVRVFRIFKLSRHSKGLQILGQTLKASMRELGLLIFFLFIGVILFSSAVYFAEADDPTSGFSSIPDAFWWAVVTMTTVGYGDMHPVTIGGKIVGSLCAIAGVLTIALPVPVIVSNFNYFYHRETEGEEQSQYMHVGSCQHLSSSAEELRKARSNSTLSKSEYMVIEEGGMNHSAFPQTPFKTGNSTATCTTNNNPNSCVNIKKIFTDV

In the case of `CC(=O)c1c(OCCN2CCOCC2)c(OC[C@H]2C[C@@H]2c2ccccc2)c2occc2c1C` [Example 58c, 1-[4-Methyl-6-(2-morpholin-4-yl-ethoxy)-7-(1S,2S-2-phenyl-cyclopropylmethoxy)-benzofuran-5-yl]-ethanone], the EC50 (commonly the concentration at which the effect is half-maximal) amounted to 100 nM.
In turn, `CC(=O)c1c(OCCN2CCOCC2)c(OCC#Cc2ccccc2)c2occc2c1C` [Example 60c, 1-[4-Methyl-6-(2-morpholin-4-yl-ethoxy)-7-(3-phenyl-prop-2-ynyloxy)-benzofuran-5-yl]-ethanone] had an EC50 of 331 nM.
To `CC(=O)c1c(OCCN2CCOCC2)c(OC/C=C/c2ccccc2)c2occc2c1C` [Example 61, 1-[4-Methyl-6-(2-morpholin-4-yl-ethoxy)-7-(E-3-phenyl-allyloxy)-benzofuran-5-yl]-ethanone] belongs 221 nM; to `CC(=O)c1c(OCCN2CCOCC2)c(OC[C@H]2O[C@@H]2c2ccccc2)c2occc2c1C` [Example 63, 1-[4-Methyl-6-(2-morpholin-4-yl-ethoxy)-7-(2R,3R-3-phenyl-oxiranylmethoxy)-benzofuran-5-yl]-ethanone], 600 nM; to `COc1c(C(C)=O)c(O)c(OCCNc2ccccc2)c2occc12` [Example 64c, 1-[6-Hydroxy-4-methoxy-7-(2-phenylamino-ethoxy)-benzofuran-5-yl]-ethanone], 340 nM.
To `CC(=O)c1c(C)c2c(c(OCCCc3ccccc3)c1OCCN1CCOCC1)OCC2` [Example 65, 5-Acetyl-6-(2-morpholinoethoxy)-4-methyl-7-(3-phenylpropoxy)-2,3-dihydrobenzofuran] belongs 200 nM; to `CC(=O)c1c(C)c2c(c(OCCC(C)c3ccc(F)cc3)c1OCCNC1CCCC1)OCC2` (centres unmarked) [Example 67, 1-{6-(2-Cyclopentylamino-ethoxy)-7-[3-RS-(4-fluorophenyl)-butoxy]-4-methyl-2,3-dihydro-benzofuran-5-yl}-ethanone], 8 nM; to `CC(=O)c1c(C)c2c(c(CCCCc3ccccc3)c1OCCN1CCOCC1)OCC2` [Example 68, 1-[4-Methyl-6-(2-morpholin-4-yl-ethoxy)-7-(4-phenyl-butyl)-2,3-dihydro-benzofuran-5-yl]-ethanone], 20 nM.

The values are drawn from patent US8309545B2, “Benzofuran potassium channel blockers and uses thereof” (Bionomics Limited, priority 2006, dated 2012).
